pEC50, pKi: −log10 of the molar value.
Assays:
[1] = Inhibition of HCV NS3/4A protease; set-up: species or system Hepacivirus hominis
Hepatitis C virus = experiment: Antiviral activity against HCV 1b infected in Huh7 cells assessed as inhibition viral subgenomic replication by luciferase based replicon assay; format: functional, organism-based, Hepacivirus hominis; settings: genotype 1b, Huh-7
Rattus norvegicus [2] = experiment: (§1) Cmax in Wistar rat at 4 mg/kg, po; format: ADME, organism-based; set-up: dose 4 mg/kg, route oral; settings: in vivo, BLD = below limit of detection
[3] = Drug level in Wistar rat liver at 4 mg/kg, po after 4 hrs; format: ADME, organism-based; set-up: dose 4 mg/kg, route oral; settings: read-out: AUC
[4] = as §1; format: ADME, organism-based; set-up: dose 4 mg/kg, route oral; settings: Wistar, in vivo
Rattus norvegicus [5] = experiment: AUC (0 to infinity) in Wistar rat plasma at 4 mg/kg, po; format: ADME, organism-based; set-up: time infinity, dose 4 mg/kg, route oral; settings: in vivo

SMILES | pKi [1] | pEC50 (Hepatitis C virus) | Cmax (Rattus norvegicus [2]) | concentration at 4 h [3] [nM] | Cmax [4] [nM] | AUC (Rattus norvegicus [5]) [µM·h]
C=C[C@@H]1C[C@]1(NC(=O)[C@@H]1C[C@@H]2CN1C(=O)[C@H](C1CCCCC1)CC(=O)NCCCCCc1cc(OC)cc3nc(-c4ccccc4)cc(c13)O2)C(=O)NS(=O)(=O)C1CC1 | 9.25 | 8.15 | BLD | 100 | – | –
C=C[C@@H]1C[C@]1(NC(=O)[C@@H]1C[C@@H]2CN1C(=O)[C@H](C1CCCCC1)CC(=O)NCCCCCc1cccc3c1CN(C3)C(=O)O2)C(=O)NS(=O)(=O)C1CC1 | 9.12 | 7.92 | – | 2200 | 50 | 0.12
C=C[C@@H]1C[C@]1(NC(=O)[C@@H]1C[C@@H]2CN1C(=O)[C@H](C(C)C)CC(=O)NCCCCCc1cccc3c1CN(C3)C(=O)O2)C(=O)NS(=O)(=O)C1CC1 | 8.85 | 7.00 | – | – | – | –
C=C[C@@H]1C[C@]1(NC(=O)[C@@H]1C[C@@H]2CN1C(=O)[C@H](C(C)C)NC(=O)OCCC/C=C\c1cccc3c1CN(C3)C(=O)O2)C(=O)NS(=O)(=O)C1CC1 | 10.22 | 7.92 | – | – | – | –

More lines, in order of rising pKi [1], values ahead:

pKi [1] | pEC50 (Hepatitis C virus) | Cmax (Rattus norvegicus [2]) | concentration at 4 h [3] [nM] | Cmax [4] [nM] | AUC (Rattus norvegicus [5]) [µM·h] | SMILES
9.14 | 7.46 | – | 2200 | 80 | 0.22 | C=C[C@@H]1C[C@]1(NC(=O)[C@@H]1C[C@@H]2CN1C(=O)[C@H](C(C)C)CC(=O)N(C(C)C)CCCCCc1cccc3c1CN(C3)C(=O)O2)C(=O)NS(=O)(=O)C1CC1
9.21 | 7.96 | – | 3000 | 90 | 0.09 | C=C[C@@H]1C[C@]1(NC(=O)[C@@H]1C[C@@H]2CN1C(=O)[C@H](C1CCCCC1)CC(=O)N(C(C)C)CCCCCc1cccc3c1CN(C3)C(=O)O2)C(=O)NS(=O)(=O)C1CC1
9.22 | 7.43 | – | 9300 | 380 | 1.1 | C=C[C@@H]1C[C@]1(NC(=O)[C@@H]1C[C@@H]2CN1C(=O)[C@H](C1CCCCC1)CC(=O)N(C(C)C)CCCCCc1cc(OC)cc3nc(-c4ccccc4)cc(c13)O2)C(=O)NS(=O)(=O)C1CC1

Source: ChEMBL document CHEMBL1153151, “Novel P2-P4 macrocyclic inhibitors of HCV NS3/4A protease by P3 succinamide fragment depeptidization strategy” (Bioorg Med Chem Lett, 2010)
